From patent US20230192772A1, “ANTIMICROBIAL PEPTIDES AND USES THEREOF” (SORBONNE UNIVERSITE, priority 2016, published 2023)
Ends that are not written are not given here.

Columns and labels:
Human red blood cells = assay: Haemolytic activity; type: cell-based; conditions: 10 µM and 50 µM, 1h at 37° C.
Procedure: (§1) Mouse or donor blood is washed three times in 10 volumes of PBS at 4° C. by centrifugation at 800 g for 10 minutes. The blood sediment is finally diluted to 4% (v/v) in PBS buffer. The test was carried out as follows: either 10 µM, or 50 µM of peptide was added to 100 µL of red blood cell suspension.
(§2) After 1h of incubation at 37° C. followed by centrifugation (800 g, 15 min), the absorbance of the supernatant was measured at 550 nm.
(§3) The negative control for this test (0% haemolysis) contains 5 µL of PBS buffer instead of the solution containing the peptide and the positive control (100% haemolysis) contains 5 µL of 1% Triton X100 instead of the solution containing the peptide.

Mouse red blood cells = assay: Haemolytic activity; type: cell-based; conditions: results not shown
Procedure: as §1, §2, §3
The haemolytic activity of the antimicrobial peptides was measured as per the protocol described in part 3.1 of Example 3.

[1] = test system: psoriatic lesions and angiogenesis of skin; assay: Imiquimod-induced psoriasis model; type: in vivo, balb/c mice; conditions: topical, 10 µg; no Imiquimod treatment
Procedure: The DA2N and DA2NEQ peptides were tested in an Imiquimod-induced psoriasis model described by Van der Fits (Van der Fits et al. 2009. Journal of immunology. 182(9):5836-5845) on female balb/c mice, aged 7 to 8 weeks.
31 mg of commercial cream containing 5% Imiquimod (Aldara, 3 M Pharmaceuticals) is applied topically on about 2.5 cm of the previously shaven ventral region of the mice for 6 days. The first psoriatic lesions appear on the 3rd day. The peptides resuspended in the cream are applied topically or intravenously (10 µg) for the first 3 days of Imiquimod treatment. Mice with no Imiquimod treatment and/or with no peptide application were used as controls. On the 6th day, the mice are sacrificed and the skin sampled is analysed by microscopy (skin lesions and angiogenesis).

[2] = Cytotoxic effects on immune cells obtained from mouse bone marrow; type: cell-based; conditions: mouse immune cells originating from bone marrow, read-out: LC50
Procedure: The mouse immune cells are obtained from C57BL/6 or Balb/c mouse bone marrow. The peptides are incubated at 37° C., 5% CO2 in the presence of 500,000 immune cells in RPMI medium at varied concentrations for 2 hours. Peptide-free cells are used as the negative control and cells in the presence of DMSO (30%) are used as the positive control. After incubation, the cells are washed then labelled with Trypan blue so as to measure the cell viability by microscope counting. The LC50 is then calculated as being the concentration of DA2N, K12A and DANa peptides inducing the death of 50% of the immune cells.

Row | Substance | haemolysis of human red blood cells (Human red blood cells) | haemolysis of mouse red blood cells (Mouse red blood cells) | angiogenesis of healthy skin [1] | effect on healthy skin [1] | CC50 at 2 hours [2]
1 | ALWKTLLKKVGKVAGKAVLNAVTNMANQN-OH [DA2N] | do not induce the haemolysis | do not induce the haemolysis | no effect on the angiogenesis of healthy skin | no effect on healthy skin | 5 µM
2 | ALWKTLLKKVGKVAGKAVLNAVTNMANQNEQ [DA2NEQ, ALWKTLLKKVGKVAGKAVLNAVTNMANQNEQOH] | do not induce the haemolysis | do not induce the haemolysis | no effect on the angiogenesis of healthy skin | no effect on healthy skin | 
